Test results from PubChem BioAssay (NCI).
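GI50: concentration for 50% inhibition of growth. The concentration for full growth arrest is given as TGI.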

What was measured:
Assay in all cases: inhibition of tumour cell growth, NCI panel, 384-well format
[1] = tested on: 786-0 renal
[2] = tested on: A498 renal
[3] = tested on: A549 NSCLC
[4] = tested on: ACHN renal
[5] = tested on: BT-549 breast
[6] = tested on: CCRF-CEM leukemia
[7] = tested on: COLO 205 colon
[8] = tested on: DU-145 prostate
[9] = tested on: HCC-2998 colon
[10] = tested on: HCT-116 colon
[11] = tested on: HCT-15 colon
[12] = tested on: HL-60(TB) leukemia
[13] = tested on: HOP-62 NSCLC
[14] = tested on: HOP-92 NSCLC
[15] = tested on: HT29 colon
[16] = tested on: IGROV1 ovarian
[17] = tested on: K-562 leukemia
[18] = tested on: KM12 colon
[19] = tested on: LOX IMVI melanoma
[20] = tested on: MALME-3M melanoma
[21] = tested on: MCF7 breast
[22] = tested on: MDA-MB-231 breast
[23] = tested on: MDA-MB-435 melanoma
[24] = tested on: MDA-MB-468 breast
[25] = tested on: MOLT-4 leukemia
[26] = tested on: NCI-H226 lung
[27] = tested on: NCI-H23 lung
[28] = tested on: NCI-H322M lung
[29] = tested on: NCI-H460 NSCLC
[30] = tested on: NCI-H522 lung
[31] = tested on: NCI/ADR-RES ovarian
[32] = tested on: OVCAR-3 ovarian
[33] = tested on: OVCAR-4 ovarian
[34] = tested on: OVCAR-5 ovarian
[35] = tested on: OVCAR-8 ovarian
[36] = tested on: PC-3 prostate
[37] = tested on: RPMI-8226 leukemia
[38] = tested on: RXF 393 renal
[39] = tested on: SF-295 CNS
[40] = tested on: SF-539 CNS
[41] = tested on: SK-MEL-2 melanoma
[42] = tested on: SK-MEL-28 melanoma
[43] = tested on: SK-MEL-5 melanoma
[44] = tested on: SK-OV-3 ovarian
[45] = tested on: SN12C renal
[46] = tested on: SNB-19 CNS
[47] = tested on: SR leukemia
[48] = tested on: SW-620 colon
[49] = tested on: T-47D breast
[50] = tested on: TK-10 renal
[51] = tested on: U251 glioblastoma
[52] = tested on: UACC-257 melanoma
[53] = tested on: UACC-62 melanoma
[54] = tested on: UO-31 renal

Cc1sc2c(c1C)C(c1ccc(Cl)cc1)=N[C@@H](CC(=O)Nc1ccc(OCCOCCOCCOCCNc3cccc4c3C(=O)N(C3CCC(=O)NC3=O)C4=O)cc1)c1nnc(C)n1-2 (stereo partly drawn)
GI50 [1]: 44.4 nM | TGI [1]: 810 nM | GI50 [2]: 166 nM | TGI [2]: > 100 µM | GI50 [3]: 36.1 nM | TGI [3]: > 100 µM | GI50 [4]: 534 nM | TGI [4]: > 100 µM | GI50 [5]: < 10 nM | TGI [5]: < 10 nM | GI50 [6]: < 10 nM | TGI [6]: 11.9 nM | GI50 [7]: 10.7 nM | TGI [7]: 44.6 nM | GI50 [8]: 624 nM | TGI [8]: 16.1 µM | GI50 [9]: < 10 nM | TGI [9]: 21.7 nM | GI50 [10]: 56.8 nM | TGI [10]: 13.6 µM | GI50 [11]: 121 nM | TGI [11]: 278 nM | GI50 [12]: < 10 nM | TGI [12]: < 10 nM | GI50 [13]: 22.4 nM | TGI [13]: 75.5 nM | GI50 [14]: 25.3 nM | TGI [14]: 291 nM | GI50 [15]: 106 nM | TGI [15]: 434 nM | GI50 [16]: 26.5 nM | TGI [16]: 123 nM | GI50 [17]: 54 nM | TGI [17]: 87.1 µM | GI50 [18]: 37.4 nM | TGI [18]: > 100 µM | GI50 [19]: 68.4 nM | TGI [19]: 203 nM | GI50 [20]: 133 nM | TGI [20]: 326 nM | GI50 [21]: < 10 nM | TGI [21]: 40.3 nM | GI50 [22]: < 10 nM | TGI [22]: 24 nM | GI50 [23]: 31.6 nM | TGI [23]: 166 nM | GI50 [24]: 15.2 nM | TGI [24]: 39.9 nM | GI50 [25]: < 10 nM | TGI [25]: 19.8 nM | GI50 [26]: 31.5 nM | TGI [26]: 131 nM | GI50 [27]: 182 nM | TGI [27]: 443 nM | GI50 [28]: 16.4 nM | TGI [28]: 78.9 nM | GI50 [29]: 380 nM | TGI [29]: > 100 µM | GI50 [30]: 37.1 nM | TGI [30]: 182 nM | GI50 [31]: 21.8 µM | TGI [31]: > 100 µM | GI50 [32]: 69.1 nM | TGI [32]: 431 nM | GI50 [33]: 15.2 nM | TGI [33]: 34.1 nM | GI50 [34]: 42.8 nM | TGI [34]: 1470 nM | GI50 [35]: < 10 nM | TGI [35]: 18.7 nM | GI50 [36]: 15.3 nM | TGI [36]: > 100 µM | GI50 [37]: < 10 nM | TGI [37]: < 10 nM | GI50 [38]: 34.9 nM | TGI [38]: 96.2 nM | GI50 [39]: 131 nM | TGI [39]: 550 nM | GI50 [40]: 90.4 nM | TGI [40]: 1120 nM | GI50 [41]: < 10 nM | TGI [41]: 25.5 nM | GI50 [42]: 130 nM | TGI [42]: 799 nM | GI50 [43]: 30 nM | TGI [43]: 118 nM | GI50 [44]: 76.5 nM | TGI [44]: 228 nM | GI50 [45]: 37.6 nM | TGI [45]: > 100 µM | GI50 [46]: 51.6 nM | TGI [46]: > 100 µM | GI50 [47]: 19.4 nM | TGI [47]: 69 nM | GI50 [48]: 33.5 nM | TGI [48]: > 100 µM | GI50 [49]: < 10 nM | TGI [49]: < 10 nM | GI50 [50]: 190 nM | TGI [50]: > 100 µM | GI50 [51]: 186 nM | TGI [51]: 80.1 µM | GI50 [52]: 179 nM | TGI [52]: 28.2 µM | GI50 [53]: 34.7 nM | TGI [53]: 162 nM | GI50 [54]: 305 nM | TGI [54]: > 100 µM
